Earlier results as cited in patent publication US20060264496A1, “Substituted indoline and indole derivatives” (priority 2003, published 2006).

Legend:
[1] = test system: electrically induced seizures, seizures induced chemically by pentylenetetrazole, picrotoxin and N-methyl-D-aspartate (NMDA), DBA/2 mouse; conditions: oral and intraperitoneal administration, rats and mice
amygdala kindling model = conditions: complex partial seizures
epileptic patients = conditions: clinical trials
[2] = test system: K(+) current in neuronal cells
[3] = test system: animal models of neuropathic pain
[4] = test system: kainic acid-induced status epilepticus; conditions: rat, following kainic acid-induced status epilepticus
hippocampal kindling = conditions: rat
[5] = test system: animal models of anxiety-like behaviour; conditions: some animal models
[6] = test system: animal models of ethanol withdrawal syndrome

## CCOC(=O)Nc1ccc(NCc2ccc(F)cc2)cc1N [Retigabine, N-(2-amino-4-(4-fluorobenzylamino)-phenyl)carbamic acid ethyl ester]
[1]
  anticonvulsant activity: active
Amygdala kindling model
  activity in amygdala kindling model: active
Epileptic patients
  incidence of seizures: effectiveness in reducing the incidence of seizures
[2]
  activation of K(+) current: activate a K(+) current
[3]
  effect in neuropathic pain models: beneficial
[4]
  limbic neurodegeneration and expression of markers of apoptosis: prevent limbic neurodegeneration and the expression of markers of apoptosis
Hippocampal kindling
  progression of hippocampal kindling: delay the progression of hippocampal kindling
[5]
  activity in anxiety-like behaviour models: active

## NCC1(CC(=O)O)CCCCC1 [gabapentin]
[6]
  effect in ethanol withdrawal syndrome models: very effective
